Results: patent publication US20230355597A1, “COMPOUNDS, COMPOSITIONS, AND METHODS FOR THE TREATMENT AND PREVENTION OF AVIAN PATHOGENIC E. COLI (APEC)” (OHIO STATE INNOVATION FOUNDATION, priority 2018, published 2023)
Values after ≈ are worked out from the molar mass of the structure shown. Read-outs that look alike come from different tables or passages of the source. Marks after values point to notes of the source that are not given here.

Tests used:
APEC O78 [1] = type: cell-based, avian pathogenic Escherichia coli (APEC); details: for MBC relative to MIC: APEC O78; for MBC / MIC: APEC O78, M63 media
APEC O1 = type: cell-based, avian pathogenic Escherichia coli (APEC); details: APEC O1, M63 media; MIC/MBC
APEC O2 = type: cell-based, avian pathogenic Escherichia coli (APEC); details: APEC O2, M63 media; MIC/MBC
APEC O8 = type: cell-based, avian pathogenic Escherichia coli (APEC); details: APEC O8, M63 media; MIC/MBC
APEC O15 = type: cell-based, avian pathogenic Escherichia coli (APEC); details: APEC O15, M63 media; MIC/MBC
APEC O18 = type: cell-based, avian pathogenic Escherichia coli (APEC); details: APEC O18, M63 media; MIC/MBC
APEC O35 = type: cell-based, avian pathogenic Escherichia coli (APEC); details: APEC O35, M63 media; MIC/MBC
APEC O115 = type: cell-based, avian pathogenic Escherichia coli (APEC); details: APEC O115, M63 media; MIC/MBC
APEC O109 = type: cell-based, avian pathogenic Escherichia coli (APEC); details: APEC O109, M63 media; MIC/MBC
APEC O78-53 = type: cell-based, avian pathogenic Escherichia coli (APEC); details: APEC O78-53, M63 media; MIC/MBC
APEC O1-63 = type: cell-based, avian pathogenic Escherichia coli (APEC); details: APEC O1-63, M63 media; MIC/MBC
APEC O2-211 = type: cell-based, avian pathogenic Escherichia coli (APEC); details: APEC O2-211, M63 media; MIC/MBC
[2] = system: Shiga toxin-producing (STEC) O157 and O26 strains; type: cell-based, E. coli; details: 100 µM, M63 media
[3] = system: biofilm embedded APEC O78; experiment: MBEC High-throughput assay; type: cell-based, avian pathogenic Escherichia coli (APEC); details: biofilm embedded APEC O78; superscript = multiple of MIC (footnote)
APEC O78 [4] = experiment: Confocal microscopy bacterial cytological profiling; type: cell-based, avian pathogenic Escherichia coli (APEC); details: 2X MBC
Description: Confocal and scanning electron microscopy. Confocal microscopy was used for bacterial cytological profiling (BCP) to identify the cellular pathways targeted by SMs as described previously. […] After incubation, treated cultures were centrifuged, washed, and resuspended in 100 μL PBS. […] Cultures were then centrifuged, washed, and resuspended in PBS to 1⁄10th volume of the original cultures.

APEC O78 [5] = experiment: Loss of 260/280 nm absorbing materials assay; type: cell-based, avian pathogenic Escherichia coli (APEC); details: 2X MBC, 1 h, *P<0.05 vs DMSO; for Absorbance 260: 260 nm absorbing material in supernatant; for Absorbance 280: 280 nm absorbing material in supernatant
[6] = system: intracellular APEC O78 in Caco-2 cells; experiment: Intracellular survival assay (cidal SMs); details: O78, Caco-2, 6 h treatment; superscript = multiple of MIC
[7] = system: intracellular APEC O78 in HD11 cells; experiment: Intracellular survival assay (cidal SMs); details: O78, HD11, 6 h treatment; superscript = multiple of MIC
[8] = system: intracellular APEC O78 in THP-1 cells; experiment: Intracellular survival assay (cidal SMs); details: O78, THP-1, 6 h treatment; superscript = multiple of MIC
[9] = system: intracellular APEC O2 in Caco-2 cells; experiment: Intracellular survival assay (cidal SMs); details: O2, Caco-2, 6 h treatment; superscript = multiple of MIC
[10] = system: intracellular APEC O2 in HD11 cells; experiment: Intracellular survival assay (cidal SMs); details: O2, HD11, 6 h treatment; superscript = multiple of MIC
[11] = system: intracellular APEC O2 in THP-1 cells; experiment: Intracellular survival assay (cidal SMs); details: O2, THP-1, 6 h treatment; superscript = multiple of MIC
[12] = system: intracellular APEC O1 in Caco-2 cells; experiment: Intracellular survival assay (cidal SMs); details: O1, Caco-2, 6 h treatment; superscript = multiple of MIC
[13] = system: intracellular APEC O1 in HD11 cells; experiment: Intracellular survival assay (cidal SMs); details: O1, HD11, 6 h treatment; superscript = multiple of MIC
[14] = system: intracellular APEC O1 in THP-1 cells; experiment: Intracellular survival assay (cidal SMs); details: O1, THP-1, 6 h treatment; superscript = multiple of MIC
Rif^r APEC O78 = experiment: In vivo efficacy of growth inhibitors in APEC infected broiler chickens; details: for reduction of average APEC load in internal organs: average of liver, lung and kidney; for reduction of average APEC load in internal organs / reduction of APEC load, Heart / reduction of APEC load, Kidney / reduction of APEC load, Liver / reduction of APEC load, Lung: vs untreated control; for reduction of APEC induced mortality: oral gavage twice a day, 5 days, untreated mortality (58.34%) normalized to 100%; for Body weight gain (BWG): weight of live chickens before necropsy minus weight before treatment
[15] = cell prints MIC/MBC, listed as 1

CC1CCCN(CCC(=O)c2ccc(Br)cc2)C1.Cl (stereo not drawn) [SM1]
MBC relative to MIC (APEC O78 [1]): identical to MIC | MBC (APEC O78 [1]; cell prints MIC/MBC): 200 µM | MBC (APEC O78 [1]; [15]): 200 µM | MIC (APEC O78 [1]; [15]): 200 µM | MBC (APEC O1): 250 µM | MIC (APEC O1): 200 µM | MBC (APEC O2): 200 µM | MIC (APEC O2): 200 µM | MBC (APEC O8): 200 µM | MIC (APEC O8): 200 µM | MBC (APEC O15): 250 µM | MIC (APEC O15): 200 µM | MBC (APEC O18): 200 µM | MIC (APEC O18): 200 µM | MBC (APEC O35): 200 µM | MIC (APEC O35): 200 µM | MBC (APEC O115): 200 µM | MIC (APEC O115): 200 µM | MBC (APEC O109): 200 µM | MIC (APEC O109): 200 µM | MBC (APEC O78-53): 200 µM | MIC (APEC O78-53): 200 µM | MBC (APEC O1-63): 250 µM | MIC (APEC O1-63): 200 µM | MBC (APEC O2-211): 200 µM | MIC (APEC O2-211): 200 µM | activity against STEC O157 and O26 strains [2]: not cidal | MBEC [3]: 400^d µM | cytological profile (confocal, FM4-64 / SYTO-9) (APEC O78 [4]): PG synthesis inhibitors | Absorbance 260 (APEC O78 [5]): 4.00* | Absorbance 280 (APEC O78 [5]): 3.08* | SMs intracellular APEC clearance concentration [6]: 200^a µM | SMs intracellular APEC clearance concentration [7]: 200^a µM | SMs intracellular APEC clearance concentration [8]: 200^a µM | SMs intracellular APEC clearance concentration [9]: >400 µM | SMs intracellular APEC clearance concentration [10]: 200^a µM | SMs intracellular APEC clearance concentration [11]: 200^a µM | SMs intracellular APEC clearance concentration [12]: >400 µM | SMs intracellular APEC clearance concentration [13]: 400^b µM | SMs intracellular APEC clearance concentration [14]: 400^b µM | reduction of average APEC load in internal organs (Rif^r APEC O78; heart): either exacerbated or did not reduce | reduction of APEC induced mortality (Rif^r APEC O78): 14.28% | reduction of APEC lesions severity (%), Air-sacs (airsacculitis) (Rif^r APEC O78; untreated control = 100%): -5.9% | reduction of APEC lesions severity (%), Heart (pericarditis) (Rif^r APEC O78; untreated control = 100%): 33.3% | reduction of APEC lesions severity (%), Liver (perihepatitis) (Rif^r APEC O78; untreated control = 100%): -20% | reduction of APEC load, Heart (Rif^r APEC O78): -1.8 log CFU/g of tissues | reduction of APEC load, Kidney (Rif^r APEC O78): -1.1 log CFU/g of tissues | reduction of APEC load, Liver (Rif^r APEC O78): -2.0 log CFU/g of tissues | reduction of APEC load, Lung (Rif^r APEC O78): -1.4 log CFU/g of tissues | Body weight gain (BWG) (Rif^r APEC O78): 165.62±69.17

COc1cc(CNCCc2ccc3ccccc3c2)ccc1OCC(O)CN1CCCC1 (stereo not drawn) [SM2]
MBC relative to MIC (APEC O78 [1]): identical to MIC | MIC (APEC O78 [1]; MIC/MBC): 100 µM (≈ 43.5 µg/mL) | MBC (APEC O78 [1]; cell prints MIC/MBC): 100 µM (≈ 43.5 µg/mL) | MBC (APEC O1): 250 µM (≈ 109 µg/mL) | MIC (APEC O1): 200 µM (≈ 86.9 µg/mL) | MBC (APEC O2): 250 µM (≈ 109 µg/mL) | MIC (APEC O2): 200 µM (≈ 86.9 µg/mL) | MBC (APEC O8): 200 µM (≈ 86.9 µg/mL) | MIC (APEC O8): 100 µM (≈ 43.5 µg/mL) | MBC (APEC O15): 100 µM (≈ 43.5 µg/mL) | MIC (APEC O15): 100 µM (≈ 43.5 µg/mL) | MBC (APEC O18): 200 µM (≈ 86.9 µg/mL) | MIC (APEC O18): 100 µM (≈ 43.5 µg/mL) | MBC (APEC O35): 200 µM (≈ 86.9 µg/mL) | MIC (APEC O35): 100 µM (≈ 43.5 µg/mL) | MBC (APEC O115): 200 µM (≈ 86.9 µg/mL) | MIC (APEC O115): 200 µM (≈ 86.9 µg/mL) | MBC (APEC O109): 200 µM (≈ 86.9 µg/mL) | MIC (APEC O109): 100 µM (≈ 43.5 µg/mL) | MBC (APEC O78-53): 200 µM (≈ 86.9 µg/mL) | MIC (APEC O78-53): 100 µM (≈ 43.5 µg/mL) | MBC (APEC O1-63): 250 µM (≈ 109 µg/mL) | MIC (APEC O1-63): 200 µM (≈ 86.9 µg/mL) | MBC (APEC O2-211): 100 µM (≈ 43.5 µg/mL) | MIC (APEC O2-211): 100 µM (≈ 43.5 µg/mL) | activity against STEC O157 and O26 strains [2]: not cidal | MBEC [3]: 50^b µM | cytological profile (confocal, FM4-64 / SYTO-9) (APEC O78 [4]): membrane pore formers | Absorbance 260 (APEC O78 [5]): 3.71 | Absorbance 280 (APEC O78 [5]): 2.86* | SMs intracellular APEC clearance concentration [6]: 100^a µM | SMs intracellular APEC clearance concentration [7]: 100^a µM | SMs intracellular APEC clearance concentration [8]: 100^a µM | SMs intracellular APEC clearance concentration [9]: >200 µM | SMs intracellular APEC clearance concentration [10]: 200^b µM | SMs intracellular APEC clearance concentration [11]: 100^a µM | SMs intracellular APEC clearance concentration [12]: >200 µM | SMs intracellular APEC clearance concentration [13]: 200b µM | SMs intracellular APEC clearance concentration [14]: 200^b µM | reduction of average APEC load in internal organs (Rif^r APEC O78; heart): 1.3 logs | cumulative lesions score (Rif^r APEC O78; liver, heart, lung and air-sacs, untreated 6.2): 5.4 | reduction of APEC induced mortality (Rif^r APEC O78): 42.86% | reduction of APEC lesions severity (%), Air-sacs (airsacculitis) (Rif^r APEC O78; untreated control = 100%): 17.7% | reduction of APEC lesions severity (%), Liver (perihepatitis) (Rif^r APEC O78; untreated control = 100%): 0% | reduction of APEC load, Heart (Rif^r APEC O78): 0.8 log CFU/g of tissues | reduction of APEC load, Kidney (Rif^r APEC O78): 1.8 log CFU/g of tissues | reduction of APEC load, Liver (Rif^r APEC O78): 1.2 log CFU/g of tissues | reduction of APEC load, Lung (Rif^r APEC O78): 1.5 log CFU/g of tissues | Body weight gain (BWG) (Rif^r APEC O78): 125.48±34.66^b
